Experimental data: US8492328B2, “Biomarkers and methods for determining sensitivity to insulin growth factor-1 receptor modulators” (Bristol-Myers Squibb Company, priority 2007, dated 2013)
pIC50: −log10 of the molar value. “Also recorded” adds a separate entry of the source.

Key:
[1] = tested on: IGF1R-sal, Colo205, RD1, HT-29, WiDr, GEO, MDA-PCa-2b, MCF-7, H3396, N-87, BT474, and SKBR3 cell lines; assay: Drug combination study (Dilution of Ratios) in cellular proliferation assays; conditions: for Combination Result: in vitro combination with compound 1, multiple cell lines, analyzed by Isobolograms
JD = assay: In vitro cellular proliferation assay ([3H]-thymidine incorporation); format: cell-based, human
Protocol: (§1) All pediatric sarcoma and neuroblastoma cell lines were obtained from Dr. Lee Helman at NIH. All cell lines were grown in RPMI medium supplemented with Glutamax (Gibco/Invitrogen #61870-036), 10% inactivated fetal bovine serum (Gibco/Invitrogen #16140-071), 10 mM Hepes, penicillin and streptomycin.
(§2) Cells were plated at an optimized density for each cell line per well in 96-well microtiter Falcon plates, incubated overnight, and then exposed to a serial dilution of drug. After 72 hours incubation with drug at 37° C., cells were pulsed with 4 μCi/ml [6-3H] thymidine (Amersham Pharmacia Biotech, UK) for 3 hours, trypsinized, harvested onto UniFilter-96, GF/B plates (PerkinElmer, Boston, Mass.) and scintillation was measured on a TopCount NXT (Packard, Conn.). Results were expressed as an IC50, which is the drug concentration required to inhibit cell proliferation by 50% to that of untreated control cells. The mean IC50 and standard deviation (SD) from multiple tests for each cell line were calculated.

TC32 = assay: as above; format: cell-based, human
Protocol: as §1, §2

SW-684 = assay: as above; format: cell-based, human
Protocol: as §1, §2

CTR = assay: as above; format: cell-based, human
Protocol: as §1, §2

Rh1 = assay: as above; format: cell-based, human
Protocol: as §1, §2

HTB-92 = assay: as above; format: cell-based, human
Protocol: as §1, §2

RDES = assay: as above; format: cell-based, human
Protocol: as §1, §2

IMR-32 = assay: as above; format: cell-based, human
Protocol: as §1, §2

To184.T = assay: as above; format: cell-based, human
Protocol: as §1, §2

5838 = assay: as above; format: cell-based, human
Protocol: as §1, §2

SK-NSH = assay: as above; format: cell-based, human
Protocol: as §1, §2

Rh36 = assay: as above; format: cell-based, human
Protocol: as §1, §2

KAG = assay: as above; format: cell-based, human
Protocol: as §1, §2

Rh4 = assay: as above; format: cell-based, human
Protocol: as §1, §2

H2595 = assay: as above; format: cell-based, human
Protocol: as §1, §2

SHSY5Y = assay: as above; format: cell-based, human
Protocol: as §1, §2

VW = assay: as above; format: cell-based, human
Protocol: as §1, §2

TC71 = assay: as above; format: cell-based, human
Protocol: as §1, §2

SK-NAS = assay: as above; format: cell-based, human
Protocol: as §1, §2

SK-LMS-1 = assay: as above; format: cell-based, human
Protocol: as §1, §2

LAN-1 = assay: as above; format: cell-based, human
Protocol: as §1, §2

LG = assay: as above; format: cell-based, human
Protocol: as §1, §2

ME = assay: as above; format: cell-based, human
Protocol: as §1, §2

H2052 = assay: as above; format: cell-based, human
Protocol: as §1, §2

H513 = assay: as above; format: cell-based, human
Protocol: as §1, §2

H211 = assay: as above; format: cell-based, human
Protocol: as §1, §2

Rh41 = assay: as above; format: cell-based, human
Protocol: as §1, §2

SA-4 = assay: as above; format: cell-based, human
Protocol: as §1, §2

HT1080/S = assay: as above; format: cell-based, human
Protocol: as §1, §2

Q: For `C[C@@]1(C(=O)Nc2ccc(F)nc2)CCCN1c1nc(Nc2cc(C3CC3)[nH]n2)c2cccn2n1` [Compound 2, (2S)-1-(4-((5-cyclopropyl-1H-pyrazol-3-yl)amino)pyrrolo[2,1-f][1,2,4]triazin-2-yl)-N-(6-fluoro-3-pyridinyl)-2-methyl-2-pyrrolidinecarboxamide], which “Combination result of compound 2” value ([1]; compound 2 with HER1/HER2 inhibitors or dasatinib, data not shown) is on record?
A: synergy effects

Q: And the pIC50 (JD; Homo sapiens, 72 h)?
A: 6.41

Q: What about the “sensitivity/resistance classification in words” value (JD; JD) of the same compound?
A: resistant

Q: And the “Sensitivity Classification” value (JD; JD (Ewing))?
A: R (“R” means resistant to the corresponding compounds.)

Q: What about the pIC50 (TC32; Homo sapiens, TC-32, 72 h) of the same compound?
A: 8.08

Q: What about the “Sensitivity Classification” value (TC32; TC32 (Ewing)) of the same compound?
A: S (“S” means sensitive)

Q: What about the pIC50 (SW-684; Homo sapiens, SW684, 72 h) of the same compound?
A: 5.30

Q: What about the “Sensitivity Classification” value (SW-684; SW-684 (Fibrosarcoma)) of the same compound?
A: R (“R” means resistant to the corresponding compounds.)

Q: And the “sensitivity/resistance classification in words” value (CTR; CTR)?
A: sensitive

Q: And the “Sensitivity Classification” value (CTR; CTR (Rhabdomyosarcoma))?
A: S (“S” means sensitive)

Q: And the pIC50 (CTR; Homo sapiens, 72 h)?
A: 6.60

Q: What about the pIC50 (Rh1; Homo sapiens, RH-1, 72 h) of the same compound?
A: 7.57

Q: What about the “Sensitivity Classification” value (Rh1; Rh1 (Rhabdomyosarcoma)) of the same compound?
A: S (“S” means sensitive)

Q: What about the “Sensitivity Classification” value (HTB-92; HTB-92 (Liposarcoma)) of the same compound?
A: R (“R” means resistant to the corresponding compounds.)

Q: What about the pIC50 (HTB-92; Homo sapiens, 72 h) of the same compound?
A: 5.99

Q: And the pIC50 (RDES; Homo sapiens, RD-ES, 72 h)?
A: 7.93

Q: What about the “Sensitivity Classification” value (RDES; RDES (Ewing)) of the same compound?
A: S (“S” means sensitive)

Q: What about the pIC50 (IMR-32; Homo sapiens, IMR-32, 72 h) of the same compound?
A: 6.58

Q: What about the “Sensitivity Classification” value (IMR-32; IMR-32 (Neuroblastoma)) of the same compound?
A: S (“S” means sensitive)

Q: And the pIC50 (To184.T; Homo sapiens, 72 h)?
A: 6.33

Q: What about the “Sensitivity Classification” value (To184.T; To184.T (Liposarcoma)) of the same compound?
A: R (“R” means resistant to the corresponding compounds.)

Q: And the “Sensitivity Classification” value (5838; 5838 (Ewing))?
A: S (“S” means sensitive)

Q: What about the pIC50 (5838; Homo sapiens, 72 h) of the same compound?
A: 7.47

Q: What about the pIC50 (SK-NSH; Homo sapiens, SK-N-SH, 72 h) of the same compound?
A: 6.86

Q: What about the “Sensitivity Classification” value (SK-NSH; SK-NSH (Neuroblastoma)) of the same compound?
A: S (“S” means sensitive)

Q: And the pIC50 (Rh36; Homo sapiens, 72 h)?
A: 5.84

Q: And the “Sensitivity Classification” value (Rh36; Rh36 (Rhabdomyosarcoma))?
A: R (“R” means resistant to the corresponding compounds.)

Q: What about the pIC50 (KAG; Homo sapiens, 72 h) of the same compound?
A: 5.78

Q: And the “Sensitivity Classification” value (KAG; KAG (Ewing))?
A: R (“R” means resistant to the corresponding compounds.)

Q: What about the pIC50 (Rh4; Homo sapiens, Rh4, 72 h) of the same compound?
A: 8.40

Q: What about the “Sensitivity Classification” value (Rh4; Rh4 (Rhabdomyosarcoma)) of the same compound?
A: S (“S” means sensitive)

Q: And the “Sensitivity Classification” value (H2595; H2595 (Melignant Pleural Mesothelioma))?
A: R (“R” means resistant to the corresponding compounds.)

Q: What about the pIC50 (H2595; Homo sapiens, NCI-H2595, 72 h) of the same compound?
A: 5.35

Q: What about the pIC50 (SHSY5Y; Homo sapiens, SH-SY5Y, 72 h) of the same compound?
A: 6.97

Q: And the “Sensitivity Classification” value (SHSY5Y; SHSY5Y (Neuroblastoma))?
A: S (“S” means sensitive)

Q: And the pIC50 (VW; Homo sapiens, 72 h)?
A: 7.72

Q: What about the “Sensitivity Classification” value (VW; VW (Ewing)) of the same compound?
A: S (“S” means sensitive)

Q: And the pIC50 (TC71; Homo sapiens, TC-71, 72 h)?
A: 7.84

Q: And the “Sensitivity Classification” value (TC71; TC71 (Ewing))?
A: S (“S” means sensitive)

Q: And the pIC50 (SK-NAS; Homo sapiens, SK-N-AS, 72 h)?
A: 6.30

Q: And the “sensitivity/resistance classification in words” value (SK-NAS; SK-NAS)?
A: resistant

Q: And the “Sensitivity Classification” value (SK-NAS; SK-NAS (Neuroblastoma))?
A: R (“R” means resistant to the corresponding compounds.)

Q: And the pIC50 (SK-LMS-1; Homo sapiens, SK-LMS-1, 72 h)?
A: 6.16

Q: What about the “Sensitivity Classification” value (SK-LMS-1; SK-LMS-1 (Leiomyosarcoma)) of the same compound?
A: R (“R” means resistant to the corresponding compounds.)

Q: What about the pIC50 (LAN-1; Homo sapiens, LAN1, 72 h) of the same compound?
A: 7.40

Q: What about the “Sensitivity Classification” value (LAN-1; LAN-1 (Neuroblastoma)) of the same compound?
A: S (“S” means sensitive)

Q: And the pIC50 (LG; Homo sapiens, 72 h)?
A: 7.43

Q: And the “Sensitivity Classification” value (LG; LG (Ewing))?
A: S (“S” means sensitive)

Q: What about the pIC50 (ME; Homo sapiens, 72 h) of the same compound?
A: 7.82

Q: And the “Sensitivity Classification” value (ME; ME (Rhabdomyosarcoma))?
A: S (“S” means sensitive)

Q: What about the “Sensitivity Classification” value (H2052; H2052 (Melignant Pleural Mesothelioma)) of the same compound?
A: R (“R” means resistant to the corresponding compounds.)

Q: What about the pIC50 (H2052; Homo sapiens, NCI-H2052, 72 h) of the same compound?
A: 5.98

Q: What about the “Sensitivity Classification” value (H513; H513 (Melignant Pleural Mesothelioma)) of the same compound?
A: R (“R” means resistant to the corresponding compounds.)

Q: And the pIC50 (H513; Homo sapiens, H513, 72 h)?
A: 5.35

Q: What about the “Sensitivity Classification” value (H211; H211 (Melignant Pleural Mesothelioma)) of the same compound?
A: R (“R” means resistant to the corresponding compounds.)

Q: What about the pIC50 (H211; Homo sapiens, NCI-H211, 72 h) of the same compound?
A: 6.13

Q: What about the pIC50 (Rh41; Homo sapiens, Rh41, 72 h) of the same compound?
A: 8.33

Q: And the “Sensitivity Classification” value (Rh41; Rh41 (Rhabdomyosarcoma))?
A: S (“S” means sensitive)

Q: What about the pIC50 (SA-4; Homo sapiens, 72 h) of the same compound?
A: 5.89

Q: And the “Sensitivity Classification” value (SA-4; SA-4 (Liposarcoma))?
A: R (“R” means resistant to the corresponding compounds.)

Q: What about the “Sensitivity Classification” value (HT1080/S; HT1080/S (Fibrosarcoma)) of the same compound?
A: R (“R” means resistant to the corresponding compounds.)

Q: What about the pIC50 (HT1080/S; Homo sapiens, HT-1080, 72 h) of the same compound?
A: 6.27

Q: `COc1cc([C@@H]2c3cc4c(cc3[C@@H](O[C@@H]3O[C@@H]5CO[C@@H](C)O[C@H]5[C@H](O)[C@H]3O)[C@H]3COC(=O)[C@H]23)OCO4)cc(OC)c1O` [VP-16] was tested. Which “Combination Result” value [1] did it give?
A: Additive

Q: For `N.N.[Cl][Pt][Cl]` [cisplatin], which “Combination Result” value [1] is on record?
A: Additive

Q: How did the “Combination Result” value [1] turn out when `C#Cc1cccc(Nc2ncnc3cc(OCCOC)c(OCCOC)cc23)c1` [erlotinib] was run?
A: synergistic effects; also recorded: Synergy

Q: `COc1cc2ncnc(Nc3ccc(F)c(Cl)c3)c2cc1OCCCN1CCOCC1` [gefitnib] was tested. Which “Combination Result” value [1] did it give?
A: synergistic effects; also recorded: Synergy

Q: With `CS(=O)(=O)CCNCc1ccc(-c2ccc3ncnc(Nc4ccc(OCc5cccc(F)c5)c(Cl)c4)c3c2)o1` [lapatinib] as the compound, how does the “Combination Result” value [1] read?
A: synergistic effects; also recorded: Synergy

Q: `CC(=O)O[C@H]1C(=O)[C@@]2(C)[C@H]([C@H](OC(=O)c3ccccc3)[C@]3(O)C[C@H](OC(=O)[C@H](O)[C@@H](NC(=O)c4ccccc4)c4ccccc4)C(C)=C1C3(C)C)[C@]1(OC(C)=O)CO[C@@H]1C[C@@H]2O` [paclitaxel] was tested. Which “Combination Result” value [1] did it give?
A: Additive

Q: How did the “Combination Result” value [1] turn out when `CC[C@]1(O)C[C@H]2CN(CCc3c([nH]c4ccccc34)[C@@](C(=O)OC)(c3cc4c(cc3OC)N(C=O)[C@H]3[C@@](O)(C(=O)OC)[C@H](OC(C)=O)[C@]5(CC)C=CCN6CC[C@]43[C@@H]65)C2)C1` [vincristine] was run?
A: Additive
